Measured values from publication PMC12491383, “Organ and tumour dosimetry of ^177Lu-rhPSMA-10.1, a novel PSMA-targeted therapy: results from a Phase I trial” (European Journal of Nuclear Medicine and Molecular Imaging, 2025).
Several values for one entry are separate records, joined by “and”; a condition that tells them apart may be missing. Equal values may be shown once.

Assay: SPECT/CT image-based normal organ dosimetry (MIRD S-value methodology), Phase I BET-PSMA-121
Format: in vivo, human
Conditions: for Cumulative image-based absorbed dose, bone marrow, range across patients / Cumulative image-based absorbed dose, salivary glands, range across patients: all cycles; for Cumulative Absorbed Dose, Bone Marrow, % of dose limit: limit 2 Gy; for Cumulative Absorbed Dose, Kidney, % of dose limit: limit 23 Gy; for Cumulative Absorbed Dose, Salivary Glands, % of dose limit: limit 24 Gy
Text: Figure 1 provides a schematic representation of the study. Enrolled patients were sequentially entered into one of the two cohorts. Cohort A received 5.55 GBq (150 mCi) of ^177Lu-rhPSMA-10.1 and Cohort B received 7.40 GBq (200 mCi) of ^177Lu-rhPSMA-10.1. Subsequent doses were delivered at 6-week intervals subject to individual tolerability and safety assessments. Each patient received between one and three cycles, with a maximum of three cycles of treatment being permitted in this initial part of the study. All administrations of ^177Lu-rhPSMA-10.1 were performed using intravenous injection under the supervision of the treating physician.
Multi-bed single-photon emission computed tomography (SPECT)/CT was conducted at 3-, 24-, 48- and 168-hours post-^177Lu-rhPSMA-10.1 administration in each treatment cycle for the estimation of organ and tumour absorbed doses in each patient. Prior to commencement of the study, each investigating site was required to complete a calibration of their dose calibrator and SPECT/CT system to ensure harmonised quantification of the imaging data. Quantitative reconstructions and all dosimetry analyses were carried out centrally by an independent dosimetry vendor (Radiopharmaceutical Imaging and Dosimetry LLC, Baltimore, MD).
The specific absorbed doses (Gy/GBq) in normal organs and tumours were determined using the Medical Internal Radiation Dose (MIRD) Committee S-value methodology. Individual patient organ masses, determined via CT delineation, were scaled to reflect deviations from reference phantom geometry. Cumulative organ absorbed doses (Gy) were calculated across all treatment cycles. Further details on dosimetry methodology are provided in the supplemental materials and have been reported in accordance with EANM guidance.
All patients underwent multi-bed single-photon emission computed tomography (SPECT)/CT at 3-, 24-, 48- and 168-hours post-^177Lu-rhPSMA-10.1 administration during each treatment cycle. The acquisition parameters are shown in Supplemental Table S1. All images were centrally reconstructed in 3D-RD-S using the iterative Ordered Subsets Expectation-Maximization (OSEM) algorithm with 40 iterations and 5 subsets. Attenuation, scatter, and the Collimator-Detector Response Function (CDRF) were modelled during the iterative process using a rotation-based projector. CT-based attenuation compensation was performed using the attenuation map generated from the CT image. Scatter was modelled using the Effective Source Scatter Estimation (ESSE) method.
Reconstructed images were converted to activity concentration units (Becquerel (Bq)/millilitre (mL)) using the calibration factor generated for each individual imaging system. Organ masses were individually determined using CT-based delineations and longitudinal SPECT activity statistics were based on these same delineations.
Time integrated activity coefficients (TIACs) were calculated for each target tissue. This was done by fitting each time–activity curve with an exponential function (mono, bi, or exponential uptake and washout) and integrating from time 0 to infinity. The simpler function was preferred provided the fit was adequate ([…]).
The TIAC in the bone marrow was derived from contours drawn around the marrow inside lumbar vertebrae L3–L5. Where lesions were present in the lumbar area, contours were drawn around either the femur heads, scapula or sternum depending on the anatomical coverage. The TIAC was then divided by the marrow mass in this region to give the TIAC concentration. The total bone marrow TIAC was be obtained as the product of this concentration and the standard International Commission on Radiological Protection (ICRP) bone marrow mass.
The S-value methodology was used to estimate the target tissue dose. […]

[1] = Cohort A (5.55 GBq/cycle), 3 patients
[2] = Cohort B (7.40 GBq/cycle), 10 patients
[3] = Patient 1, Cohort A, 3 cycles, 16.20 GBq cumulative
[4] = Patient 2, Cohort A, 2 cycles, 11.57 GBq cumulative
[5] = Patient 3, Cohort A, 3 cycles, 16.58 GBq cumulative
[6] = Patient 4, Cohort B, 3 cycles, 22.94 GBq cumulative

CC(C)(C)[Si](F)(c1ccc(C(=O)NC[C@@H](NC(=O)CN2CCN(CC(=O)[O-])CCN(CC(=O)[O-])CCN(CC(=O)[O-])CC2)C(=O)N[C@H](CCCCNC(=O)CCC(=O)NCCC[C@@H](NC(=O)CC[C@H](NC(=O)N[C@@H](CCC(=O)O)C(=O)O)C(=O)O)C(=O)O)C(=O)O)cc1)C(C)(C)C.[177Lu+3] [^177Lu-rhPSMA-10.1]
Mean (SD) Absorbed Dose, adrenals (All Cycles): 0.010 (0.018) Gy/GBq
Mean (SD) Absorbed Dose, bladder wall (All Cycles): 0.018 (0.010) Gy/GBq
Mean (SD) Absorbed Dose, bone marrow (image-based) (All Cycles): 0.011 Gy/GBq and 0.011 (0.020) Gy/GBq
Mean (SD) Absorbed Dose, brain (All Cycles): 0.003 (0.004) Gy/GBq
Mean (SD) Absorbed Dose, gall bladder wall (All Cycles): 0.004 (0.002) Gy/GBq
Mean (SD) Absorbed Dose, heart (All Cycles): 0.014 (0.003) Gy/GBq
Mean (SD) Absorbed Dose, intestine (All Cycles): 0.002 (0.001) Gy/GBq
Mean (SD) Absorbed Dose, kidneys (All Cycles): 0.297 (0.098) Gy/GBq
Mean (SD) Absorbed Dose, lacrimal glands (All Cycles): 0.611 (0.329) Gy/GBq
Mean (SD) Absorbed Dose, liver (All Cycles): 0.035 (0.018) Gy/GBq
Mean (SD) Absorbed Dose, lungs (All Cycles): 0.049 (0.055) Gy/GBq
Mean (SD) Absorbed Dose, pancreas (All Cycles): 0.002 (0.001) Gy/GBq
Mean (SD) Absorbed Dose, prostate (All Cycles): 0.003 (0.002) Gy/GBq
Mean (SD) Absorbed Dose, salivary glands (All Cycles): 0.134 (0.077) Gy/GBq
Mean (SD) Absorbed Dose, spleen (All Cycles): 0.034 (0.019) Gy/GBq
Mean (SD) Absorbed Dose, stomach wall (All Cycles): 0.004 (0.003) Gy/GBq
Mean (SD) Absorbed Dose, ureters (All Cycles): 0.002 (0.001) Gy/GBq
Cumulative image-based absorbed dose, bone marrow, range across patients [1]: 0.14–0.87 Gy
Cumulative image-based absorbed dose, salivary glands, range across patients [1]: 1.25–5.53 Gy
Cumulative image-based absorbed dose, bone marrow, range across patients [2]: 0.03–0.42 Gy
Cumulative image-based absorbed dose, salivary glands, range across patients [2]: 0.79–3.40 Gy
Mean (SD) Absorbed Dose, adrenals (Cycle 1, 13 patients): 0.007 (0.002) Gy/GBq
Mean (SD) Absorbed Dose, bladder wall (Cycle 1, 13 patients): 0.018 (0.013) Gy/GBq
Mean (SD) Absorbed Dose, bone marrow (image-based) (Cycle 1, 13 patients): 0.011 (0.010) Gy/GBq
Mean (SD) Absorbed Dose, brain (Cycle 1, 13 patients): 0.002 (0.001) Gy/GBq
Mean (SD) Absorbed Dose, gall bladder wall (Cycle 1, 13 patients): 0.004 (0.002) Gy/GBq
Mean (SD) Absorbed Dose, heart (Cycle 1, 13 patients): 0.013 (0.004) Gy/GBq
Mean (SD) Absorbed Dose, intestine (Cycle 1, 13 patients): 0.002 (0.001) Gy/GBq
Mean (SD) Absorbed Dose, kidneys (Cycle 1, 13 patients): 0.266 Gy/GBq and 0.27 Gy/GBq and 0.266 (0.075) Gy/GBq
Mean (SD) Absorbed Dose, lacrimal glands (Cycle 1, 13 patients): 0.568 (0.348) Gy/GBq
Mean (SD) Absorbed Dose, liver (Cycle 1, 13 patients): 0.034 (0.021) Gy/GBq
Mean (SD) Absorbed Dose, lungs (Cycle 1, 13 patients): 0.058 (0.072) Gy/GBq
Mean (SD) Absorbed Dose, pancreas (Cycle 1, 13 patients): 0.002 (0.001) Gy/GBq
Mean (SD) Absorbed Dose, prostate (Cycle 1, 13 patients): 0.003 (0.002) Gy/GBq
Mean (SD) Absorbed Dose, salivary glands (Cycle 1, 13 patients): 0.130 Gy/GBq and 0.13 Gy/GBq and 0.130 (0.068) Gy/GBq
Mean (SD) Absorbed Dose, spleen (Cycle 1, 13 patients): 0.034 (0.023) Gy/GBq
Mean (SD) Absorbed Dose, stomach wall (Cycle 1, 13 patients): 0.005 (0.005) Gy/GBq
Mean (SD) Absorbed Dose, ureters (Cycle 1, 13 patients): 0.002 (0.001) Gy/GBq
Cumulative Absorbed Dose, Bone Marrow [3]: 0.14 Gy
Cumulative Absorbed Dose, Kidney [3]: 8.20 Gy
Cumulative Absorbed Dose, Salivary Glands [3]: 5.53 Gy
Cumulative Absorbed Dose, Bone Marrow, % of dose limit [3]: 7.0%
Cumulative Absorbed Dose, Kidney, % of dose limit [3]: 36%
Cumulative Absorbed Dose, Salivary Glands, % of dose limit [3]: 23%
Cumulative Absorbed Dose, Bone Marrow [4]: 0.14 Gy
Cumulative Absorbed Dose, Kidney [4]: 5.86 Gy
Cumulative Absorbed Dose, Salivary Glands [4]: 1.25 Gy
Cumulative Absorbed Dose, Bone Marrow, % of dose limit [4]: 7.0%
Cumulative Absorbed Dose, Kidney, % of dose limit [4]: 25%
Cumulative Absorbed Dose, Salivary Glands, % of dose limit [4]: 5.2%
Cumulative Absorbed Dose, Bone Marrow [5]: 0.87 Gy
Cumulative Absorbed Dose, Kidney [5]: 6.15 Gy
Cumulative Absorbed Dose, Salivary Glands [5]: 2.96 Gy
Cumulative Absorbed Dose, Bone Marrow, % of dose limit [5]: 44%
Cumulative Absorbed Dose, Kidney, % of dose limit [5]: 27%
Cumulative Absorbed Dose, Salivary Glands, % of dose limit [5]: 12%
Cumulative Absorbed Dose, Bone Marrow [6]: 0.13 Gy
Cumulative Absorbed Dose, Kidney [6]: 8.33 Gy
Cumulative Absorbed Dose, Salivary Glands [6]: 2.87 Gy
